According to US20160157479A1, “ANTIFUNGAL COMPOSITION AND METHOD” (OMEX INTERNATIONAL LIMITED, priority 2013, published 2016):

Key:
[1] = Light-fastness study, ratio of Oxynex ST:ascorbic acid; format: physicochemical; settings: 0.1% vanillin, 1500 Lux 5 hours per day
Description: The formulations used for these experiments are described in TABLE 12. Various ratios of Oxynex ST and ascorbic acid were used in the composition to determine the effect on photostability.
(§1) Method: Formulations were diluted with water to 0.1% vanillin and 5 mL transferred by pipette to a 100 mL crystallising dish. All dishes were placed in a light box containing two 60 cm high efficiency 24 W fluorescent bulbs housed in a canopy to provide bright, full spectrum lighting closely resembling daylight (6400 Kelvin). The dishes were covered with muslin sheets to reduce the intensity of the light to 1500 Lux on a programme of 5 hours per day. At specific time intervals the dishes were extracted and made up to volume with methanol. Samples were analysed by HPLC.

[2] = Light-fastness study, addition of ascorbic acid; format: physicochemical; settings: 0.1% vanillin, 1500 Lux 5 hours per day
Description: The formulations used for these experiments are described in TABLE 10. Oxynex ST (5%) and Oxynex ST (5%) with ascorbic acid (1%) were added to the composition to determine the effect on photostability.
as §1

cabbage leaf discs = experiment: Effect of composition on leaf-penetration; settings: 0.1% vanillin
Description: 14.5 cm cabbage leaf discs were cut and placed in a petri dish and treated with a diluted composition. At the same time a second petri dish (control) was treated with the same diluted composition with no leaf present and stored in the dark for the duration of the test.
Test time periods were 1, 2, 4, 6 & 24 hours after application. The application was performed using an artist's air brush at low pressure to give a deposit of circa 2 g of spray diluted composition.
At the appropriate time period, the leaf disc was washed with methanol and the washings collected and made up to 25 mL with methanol. The appropriate control petri dish was also washed with methanol and the volume made up to 25 mL.
For each treatment a spray control was prepared by diluting 5 mL of spray liquid to 50 mL in a volumetric flask with methanol. The spray control is applied to the leaf and is used to determine the amount of vanillin applied to the leaf surface for each test.
The amount of vanillin washed from the leaf surface was subtracted from the amount washed from the petri dish control to determine how much of the vanillin has moved into the leaf sub-surface layer as a function of the formulation.

[3] = Light-fastness study (Oxynex ST photostabiliser); format: physicochemical; settings: 0.1% vanillin, light box 5000 lux
Description: A composition without any photostabiliser was used as a base composition (no photostabiliser).
Method: Each formulation was diluted with water to 0.1% vanillin (as pure) and 5 mL was applied by pipette to a glass petri dish. The dishes were left to stand in a light box fitted with 2×40 W fluorescent daylight bulbs with an illumination intensity of 5000 lux. The dishes were extracted with methanol and made up to 25 mL in a volumetric flask after 3 and 5 days. Samples were then analysed by HPLC.

Photodecomposition study = format: physicochemical; settings: 0.1% vanillin
Description: The following samples were prepared by diluting down the specified composition with water: • VS, vanillin solution in water @ 0.1% vanillin; • 0.4% dilution of RBEF-024 (0.1% vanillin); and • 0.4% dilution of RBEF-030 (0.1% vanillin). • 5 ml of the diluted material was pipetted into 3 pyrex crystallisation dishes; the surface was covered with muslin and the samples placed in a light box for 1, 3 and 5 days respectively with high intensity white light applied for 5 hours out of every 24 hours.
As a control, three equivalent samples were placed in crystallisation dishes which were placed in the dark (inside a cupboard).
At the end of each time period the contents of the crystallisation dishes were washed out with 4×5 mL methanol (magnetic stirrer used at each addition to dissolve any solid vanillin) and the washings transferred to a 25 mL volumetric flask and made up to volume with methanol.
As an initial control (t=0 days), 5 mL of each dilution was pipetted into a 25 mL volumetric flask and made up to volume with methanol.

With `COc1cc(C=O)ccc1O` [0.1% Vanillin Technical in water, 4-Hydroxy-3-methoxybenzaldehyde] the “Vanillin (mg/L) 2” value ([1]; 0 days) was 200.48 mg/L, the Vanillin mg/dish ([1]; 0 days) was 5.02 mg/dish and the “Loss (%)” value ([1]; 1 day) was −1.19%. For the same molecule, the Vanillin mg/dish ([1]; 1 day) was 4.96 mg/dish, the “Loss (%)” value ([1]; 2 days) was −0.11% and the Vanillin mg/dish ([1]; 2 days) was 4.96 mg/dish. For the same molecule, the “Loss (%)” value ([1]; 3 days) was −1.17%, the Vanillin mg/dish ([1]; 3 days) was 4.90 mg/dish and the “Concentration (mg/dish)” value ([2]; 0 days) was 5.87 mg/dish. The “Loss (%)” value ([2]; 0 days) was 0.00%, the “Concentration (mg/dish)” value ([2]; 1 day) was 5.85 mg/dish and the “Loss (%)” value ([2]; 1 day) was 0.34%. The “Loss (%)” value ([2]; 3 days) was 3.92%, the “Concentration (mg/dish)” value ([2]; 7 days) was 5.53 mg/dish and the “Loss (%)” value ([2]; 7 days) was 5.79%. For the same molecule, the “Concentration (mg/dish)” value ([2]; 14 days) was 5.22 mg/dish, the “% Vanillin penetrating through leaf cuticle surface” value (cabbage leaf discs; 1 hour after application) was 0.4% and the “% Vanillin penetrating through leaf cuticle surface” value (cabbage leaf discs; 2 hour after application) was 2.5%. For the same molecule, the “% Vanillin penetrating through leaf cuticle surface” value (cabbage leaf discs; 4 hour after application) was 1.7%, the “% Vanillin penetrating through leaf cuticle surface” value (cabbage leaf discs; 6 hour after application) was 5.0% and the “% Vanillin penetrating through leaf cuticle surface” value (cabbage leaf discs; 24 hour after application) was 8.5%. The “Loss (%)” value ([3]; 3 days) was 6.18%, the “Vanillin” value ([3]; 3 days) was 177.65 mg/L and the “Loss (%)” value ([3]; 5 days) was 8.49%. For the same molecule, the “% Vanillin lost by photo-decomposition” value (Photodecomposition study; 0 days) was 0.0%, the “% Vanillin lost by photo-decomposition” value (Photodecomposition study; light box 5 of 24 hours, 1 day) was “+0.08%” and the “% Vanillin lost by photo-decomposition” value (Photodecomposition study; light box 5 of 24 hours, 3 day) was “+1.50%”. For the same molecule, the “% Vanillin lost by photo-decomposition” value (Photodecomposition study; light box 5 of 24 hours, 5 day) was “+2.08%”.
